According to ChEMBL document CHEMBL1130742, “Inhibition of thermolysin with nitrone-bearing substrate analogs: a new type of thermolysin inhibitors” (Bioorg Med Chem Lett, 1998):

Target: T1, Thermolysin (Bacillus thermoproteolyticus, UniProt P00800)
T1 sequence (P00800 whole entry): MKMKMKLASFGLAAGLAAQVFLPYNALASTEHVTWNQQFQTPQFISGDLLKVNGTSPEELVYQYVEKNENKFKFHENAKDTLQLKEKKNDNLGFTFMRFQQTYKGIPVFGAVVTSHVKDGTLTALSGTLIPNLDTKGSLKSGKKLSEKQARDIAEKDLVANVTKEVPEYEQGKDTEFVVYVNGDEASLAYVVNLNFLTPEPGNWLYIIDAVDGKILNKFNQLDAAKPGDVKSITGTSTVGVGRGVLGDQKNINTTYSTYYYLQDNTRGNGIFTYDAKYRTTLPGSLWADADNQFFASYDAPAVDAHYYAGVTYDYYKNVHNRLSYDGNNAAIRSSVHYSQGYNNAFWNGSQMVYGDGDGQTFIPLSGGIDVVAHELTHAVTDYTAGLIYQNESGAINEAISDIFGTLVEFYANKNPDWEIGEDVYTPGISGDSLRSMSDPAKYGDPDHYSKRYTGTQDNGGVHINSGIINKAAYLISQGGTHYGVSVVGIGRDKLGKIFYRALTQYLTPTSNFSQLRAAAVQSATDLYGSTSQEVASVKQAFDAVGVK
Experiment: Inhibitory activity against thermolysin using 2-furylacryloyl-Gly-Leu-NH2 as substrate at pH 7.2

Compared with `COC(=O)C(Cc1ccccc1)/[N+]([O-])=C/c1ccccc1` (stereo not drawn), `NC(=O)C(Cc1ccccc1)/[N+]([O-])=C/c1ccccc1` (stereo not drawn) is 2.5-fold lower in Ki: 1910 µM for the first, 774 µM for the second.

Going from `NC(=O)C(/C=[N+](\[O-])Cc1ccccc1)Cc1ccccc1` (stereo not drawn) to `COC(=O)C(/C=[N+](\[O-])Cc1ccccc1)Cc1ccccc1` (stereo not drawn), the Ki rises from 40 µM to 82 µM (2-fold).

Compared with `COC(=O)C(Cc1ccccc1)C/[N+]([O-])=C/c1ccccc1` (stereo not drawn), `O=C(O)CNC(=O)C(/C=[N+](\[O-])Cc1ccccc1)Cc1ccccc1` (stereo not drawn) is 4.5-fold lower in Ki: 244 µM for the first, 54 µM for the second.

First: O=CN(O)CC(Cc1ccccc1)C(=O)NCC(=O)O (stereo not drawn)
Second: O=C(O)CNC(=O)C(CC(=O)O)Cc1ccccc1 (stereo not drawn)
The Ki of the first is 10-fold lower: 34 µM for the first, 340 µM for the second.
